The results in this text go back to US7842671B1, “Peptidomimetic inhibitors of STAT activity and uses thereof” (University of South Florida, priority 2003, dated 2010).

The target in test [1] is Stat5:Stat5. Briefly: EMSA of Stat5:Stat5 DNA-binding in nuclear extracts. It counts as biochemical, mouse. The note with it: nuclear extracts pre-incubated 30 min, mean and SD of at least 3 assays, read-out: IC50 values against STAT Dimers, Stat5:Stat5. On the procedure:
(§1) Nuclear extract preparation and gel shift assays. Nuclear extracts were prepared from cell lines and used for electrophoretic mobility shift assay (EMSA) as previously described (Garcia, R. et al. (1997); Yu, C. L. et al. (1995); Turkson, J. et al. (1998)). In some cases, cells were pre-treated with peptidomimetics for the indicated times (12-48 h) prior to harvesting for nuclear extract preparation. In other studies, nuclear extracts were pre-incubated with peptidomimetics for 30 min at room temperature prior to incubation with radiolabeled probe. The ^32P-radiolabeled oligonucleotide probes used are hSIE (high affinity sis-inducible element, m67 variant, 5′-[…]-3′) (SEQ ID NO. 3) that binds both Stat1 and Stat3 (Garcia, R. et al. (1997); Wagner B. J. et al. (1990)) and MGFe (mammary gland factor element from the bovine β-casein gene promoter, 5′-[…]-3′) (SEQ ID NO. 4) that binds Stat1 and Stat5 (Gouilleux, F. et al. (1995); Seidel, H. M. et al. (1995)).
Peptidomimetics of the invention can be prepared by replacing prolyl or alanyl residue at the peptide bond that is N-terminal to the phosphotyrosine (Y*) of a peptide such as PY*L or AY*L with an organic substituent such as an optionally substituted aryl or heteroaryl group. The activities of STATs were measured in nuclear extracts (prepared from epidermal growth factor (EGF)-stimulated fibroblasts) as DNA-bound protein complexes by electrophoretic mobility shift assay (EMSA). STAT-DNA complexes detected include Stat3:Stat3 homodimers (upper band), Stat1:Stat3 heterodimers (intermediate band) and Stat1:Stat1 homodimers (lower band) (FIG. 1A) when a ^32P-labeled hSIE oligonucleotide probe is used, or Stat5:Stat5 (upper band) and Stat1:Stat1 dimers (lower band) (FIG. 1B) when ^32P-labeled MGFe is used as a probe.
Background: Mobility shift assays separate free from complexed probe on a gel.

For test [2], the target named is Stat3 (Mus musculus, UniProt P42227). It counts as cell-based. Details: nuclear extracts prepared from v-Src-transformed NIH3T3/v-Src; endogenous in cells; host or cells: NIH3T3/v-Src. On the procedure: as §1
Test [3] concerns the target T1, Stat3 (Homo sapiens, UniProt P40763).
T1 construct: endogenous in cells; host or cells: A549, MDA-MB-231, MDA-MB-435, MDA-MB-468
It counts as cell-based. As for the experimental part: as §1

The test system of test [4] is Stat1:Stat1 and Stat3:Stat3 dimers. Briefly: Dissociation-reassociation analysis of pooled Sf-9 lysates by EMSA. It counts as biochemical. The note with it: 30 min pre-treatment, 30-300 μM PY*LKTK or 3-1000 μM ISS 610, hSIE probe. As for the experimental part: (§2) Cytosolic extract preparation and luciferase assays. Cytosolic extract preparation from fibroblasts and luciferase assays were previously described (Turkson, J. et al. (1998); Turkson, J. et al. (1999)). Briefly, after two washes with PBS and equilibration for 5 min with 0.5 ml PBS-0.5 mM EDTA, cells were scraped off the dishes and the cell pellet was obtained by centrifugation (4,500×g, 2 min, 4° C.). Cells were resuspended in 0.4 ml of low-salt HEPES buffer (10 mM HEPES (pH 7.8), 10 mM KCl, 0.1 mM EGTA, 0.1 mM EDTA, 1 mM phenylmethylsulfonyl fluoride, and 1 mM dithiothreitol) for 15 min, lysed by the addition of 20 μl of 10% Nonidet P-40 (NP-40), and centrifuged (10,000×g, 30 s, 4° C.) to obtain the cytosolic supernatant, which was used for luciferase assays (Promega) measured with a luminometer. Cytosolic lysates containing activated Stat3 or Stat1 that were used for dissociation-reassociation analysis were prepared from baculovirus-infected Sf-9 insect cells as previously described (Turkson, J. et al. (2001); Zhang, Y. et al. (2000)). Briefly, cultured dishes of Sf-9 cells were washed twice with ice-cold 1×PBS and then PBS containing 1 mM sodium orthovanadate.

For test [5], the system named is NIH3T3/v-Src. It counts as cell-based, mouse. The note with it: 1 mM, four days. On the procedure: (§3) Cell proliferation, soft-agar growth and Apo-BrdU labeling studies. Proliferating fibroblasts and human tumor cells were counted by phase-contrast microscopy for viable cells (using tyrpan blue exclusion). Colony formation assays in six-well dishes and quantification of colonies by iodonitrotetrazolium violet have been previously described (Turkson, J. et al. (1999)). Treatment of cells with inhibitors was initiated 1 day after seeding cells by adding 75 μl of medium with or without inhibitor, and repeated every two to three days. Apoptosis was measured by Apo-BrdU labeling and following the supplier's (PharMingen; San Diego, Calif.) instructions.
(§4) Stat3 has an essential role in cell proliferation, and constitutively-active Stat3 is required for growth of transformed and tumor cells that harbor aberrant Stat3 signaling. Studies were performed to determine the effects of the peptidomimetic-mediated inhibition of Stat3 on cell proliferation using trypan blue exclusion for viable cell counts.

Test [6] has as its system NIH3T3/v-Ras. It counts as cell-based, mouse. The note with it: 1 mM. As for the experimental part:
as §3, §4

Test [7] relates to NIH3T3. It counts as cell-based, mouse. The note with it: 1 mM, normal NIH3T3 cells. On the procedure:
as §3, §4

Test [8] deals with NIH3T3/v-Src. Briefly: Soft-agar growth of v-Src-transformed fibroblasts. It counts as cell-based, mouse. The note with it: 1 mM every 2-3 days. As for the experimental part: as §3
Previous studies with PY*LKTK-MTS (SEQ ID NO. 1) (Turkson, J. et al., 2001)) confirmed that inhibition of constitutive Stat3 activation blocks Src transformation (Turkson, J. et al. (1998); Turkson, J. et al., (1999); Bromberg, J. R. et al. (1998)).

In test [9] the test system is Stat3-independent luciferase reporter, pRLSRE. It counts as cell-based. The note with it: 1 mM, Src-transformed mouse cells.
Source text: (§5) Plasmids. The Stat3 reporter, pLucTKS3, driving expression of the firefly luciferase gene and the Stat3-independent plasmid, pRLSRE, containing two copies of the serum response element (SRE) from the c-fos promoter (Turkson, J. et al. (1998); Zhang, Y. et al. (2000)) that drives renilla luciferase gene (Promega; Madison, Wis.) expression, have been previously described (Turkson, J. et al. (2001); Turkson, J. et al. (1999)).
as §2, with “Cytosolic lysates containing activated Stat3 or Stat1 that were used for dissociation-reassociation analysis were prepared from baculovirus-infected Sf-9 insect cells as previously described (Turkson, J. et al. (2001); Zhang, Y. et al. (2000)). Briefly, cultured dishes of Sf-9 cells were washed twice with ice-cold 1×PBS and then PBS containing 1 mM sodium orthovanadate.” left out

Test [10] has as its system Stat3-dependent luciferase reporter, pLucTKS3. It counts as cell-based. The note with it: 1 mM, Src-transformed mouse cells.
Source text: as §5
as §2, with “Cytosolic lysates containing activated Stat3 or Stat1 that were used for dissociation-reassociation analysis were prepared from baculovirus-infected Sf-9 insect cells as previously described (Turkson, J. et al. (2001); Zhang, Y. et al. (2000)). Briefly, cultured dishes of Sf-9 cells were washed twice with ice-cold 1×PBS and then PBS containing 1 mM sodium orthovanadate.” left out

T1 sequence (P40763 whole entry): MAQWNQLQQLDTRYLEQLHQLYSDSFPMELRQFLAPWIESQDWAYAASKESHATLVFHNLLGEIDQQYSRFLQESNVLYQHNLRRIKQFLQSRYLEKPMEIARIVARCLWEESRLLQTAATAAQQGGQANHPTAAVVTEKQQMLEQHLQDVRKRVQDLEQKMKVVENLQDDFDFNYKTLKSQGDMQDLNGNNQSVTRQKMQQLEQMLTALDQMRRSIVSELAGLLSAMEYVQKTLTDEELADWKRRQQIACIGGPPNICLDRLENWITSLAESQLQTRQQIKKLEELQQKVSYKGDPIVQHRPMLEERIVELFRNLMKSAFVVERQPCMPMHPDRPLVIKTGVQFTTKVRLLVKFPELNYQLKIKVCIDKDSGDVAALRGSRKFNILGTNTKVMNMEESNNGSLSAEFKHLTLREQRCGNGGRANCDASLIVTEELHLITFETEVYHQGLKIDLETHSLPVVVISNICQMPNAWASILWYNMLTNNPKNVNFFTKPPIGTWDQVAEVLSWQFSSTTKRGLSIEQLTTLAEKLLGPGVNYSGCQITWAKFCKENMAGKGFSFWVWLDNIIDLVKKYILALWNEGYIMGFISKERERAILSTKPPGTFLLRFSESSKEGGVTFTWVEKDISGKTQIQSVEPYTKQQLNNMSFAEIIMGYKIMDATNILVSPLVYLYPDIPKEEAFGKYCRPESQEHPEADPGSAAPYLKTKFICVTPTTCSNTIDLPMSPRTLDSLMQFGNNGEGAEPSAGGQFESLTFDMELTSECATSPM
Sequence of Stat3 (Mus musculus, UniProt P42227) (P42227 whole entry): as the sequence (P40763 whole entry) above, with E760D counted along it

`CC(C)CC(NC(=O)C(Cc1ccc(OP(=O)(O)O)cc1)NC(=O)c1ccc(C#N)cc1)C(=O)O` (centres unmarked) [ISS 610]: the IC50 (in general, the concentration needed to halve the response being measured) in test [1] was 285 µM. In addition, the “Stat3 activation in Src-transformed fibroblasts (EMSA)” value in test [2] was “time-dependent reduction of Stat3 activation”. In addition, in test [3], the “Stat3 activation in breast carcinoma cells (EMSA)” value is recorded as “time-dependent reduction of Stat3 activation”. In test [3], the “Stat3 activation in human non-small cell lung carcinoma cells (EMSA)” value is “time-dependent reduction of Stat3 activation”. Further, the “effect on STAT dimers in mixed Stat1:Stat1 and Stat3:Stat3 lysates” value in test [4] is listed as “appearance of an additional intermediate band representing Stat1:Stat3 heterodimers”. In addition, the figures for the cell proliferation result in test [5], in [6] and in test [7] were “significantly suppresses proliferation”, “no effect on cell proliferation” and “no effect on cell proliferation”, respectively. Also, the “growth in soft-agar suspension” value in [8] was “significantly suppressed”. For the same compound, in [9], the “induction of the Stat3-independent luciferase reporter pRLSRE” value was “no effect”. In addition, in test [10], the “transcriptional induction of the Stat3-dependent luciferase reporter pLucTKS3” value is on record as “significant suppression”.
